Columns and labels:
[1] = test system: AMP-activated protein kinase (AMPK); test: p-AMPK expression level in L6 cell line by Western blot; format: cell-based; details: L6 cells, 2 hours compound treatment
Method: (§1) Evaluation of p-AMPK and p-ACC expression level in L6 cell line by Western-Blot
(§2) This method evaluates the changes of AMP-activated protein kinase (AMPK) and ACC (acetyl-CoA carboxylase) activity by small molecular modulators through detecting the level of p-AMPK and p-ACC proteins in L6 cells using Western blot.
(§3) L6 cells are maintained in DMEM medium supplemented with 10% FBS in 10-cm dishes. Prior to compounds treatment, L6 cells are seeded in 12-well-plates at concentration of 3×10^4 cells per well. After 24 hours of incubation in 12-well plates, L6 cells are differentiated by replacing the 10% FBS-DMEM medium with 2% FBS-DMEM. Differentiation usually takes 5 days, during which the culture medium is changed every 2 days.
(§4) The compound concentrations typically range from 32 μM to 0.5 μM with 2-fold dilution in 2 ml DMEM and 7 doses. The final DMSO concentration is 0.4%. Berberine is used as a positive control at concentration of 16 μM. Before compound treatment, starve L6 cells for 2 hours by replacing the medium with DMEM, and then gently aspirate the media from each well. Add the compounds into the plates and incubate at 37 degree 5% CO2 for 2 hours.
(§5) Prepare lysis buffer (RIPA buffer with protease-inhibitors and phosphorate-inhibitors) and place it on ice. After two hour's compound treatment, aspirate the medium from 12-well plates, add 70 ul lysis buffer to each well and keep the plates on ice for 5 min. Then scrape the cell lysate off the plates and transfer it to 1.5 ml eppendorf tubes. Keep the tube on ice for more 10 min, centrifugate the lysate at 13000 rpm, 4 degrees for 15 min and transfer the supernatant to clean tubes.
(§6) Determine protein concentration for each sample using Quickstart Bradford protein quantitation kit. Mix 20 ug protein sample with 4 times loading buffer, heat them at 100° C. for 5 min, store the sample in −80° C. or perform Western blot assay directly. For Western blot assay, load 20 ug samples and 10 ul Pre-stained Protein Maker into 4-12% SDS-PAGE gradient gel. Run the samples at 100 V in the stacking gel and at 120 V in resolving gel until the Bromophenol dye reaches the bottom. Transfer the electrophoresed proteins to a PVDF membrane using Bio-Rad's Transblot for 120 min at 300 mA. Following the completion of transfer, the membrane is blocked with 5% non-fat milk for 2 hours at room temperature before incubated with primary antibody (p-AMPK and p-ACC) at 4° C. overnight. On the next day wash the membrane twice with TBST, add secondary antibody and incubate for 1 hour at room temperature. Wash the membrane twice with TBST. Develop p-AMPK and p-ACC protein expression level on the film in dark room with Amersham ECL plus kit. The bands of each sample are quantitated by Bio-Rad system, The AC1.3 value is analyzed using Prism 5.0.

[2] = test system: ACC (acetyl-CoA carboxylase); test: p-ACC expression level in L6 cell line by Western blot; format: cell-based; details: Rattus norvegicus, L6 cells, 2 hours compound treatment, read-out: Activity AC1.3 (ACCp)
Method: as §1, §2, §3, §4, §5, §6

| SMILES | Activity AC1.3 (AMPKp) [1] | EC (1.3-fold) [2] |
| --- | --- | --- |
| Cc1ccccc1N1CCN(c2cccc(C3CC(C)(C)c4cc(F)cc(C(=O)NS(=O)(=O)C5CC5)c4N3)c2)CC1 (stereo not drawn) [Example 58, Cyclopropanesulfonic acid {6-fluoro-4,4-dimethyl-2-[3-(4-o-tolyl-piperazin-1-yl)-phenyl]-1,2,3,4-tetrahydro-quinoline-8-carbonyl}-amide] | 0.46 µM | 0.36 µM |
| CC1(C)CC(c2cccc(N3CCN(c4ccccc4)CC3)c2)Nc2c(C(=O)NS(=O)(=O)C3CC3)cccc21 (stereo not drawn) [Example 76, Cyclopropanesulfonic acid {4,4-dimethyl-2-[3-(4-phenyl-piperazin-1-yl)-phenyl]-1,2,3,4-tetrahydro-quinoline-8-carbonyl}-amide] | 3.12 µM | 0.57 µM |
| CC1(C)CC(c2cc(F)cc(N3CCOCC3)c2)Nc2ccc(S(=O)(=O)NC3CCC3)cc21 (stereo not drawn) [Example 16, 2-(3-Fluoro-5-morpholin-4-yl-phenyl)-4,4-dimethyl-1,2,3,4-tetrahydro-quinoline-6-sulfonic acid cyclobutylamide] | 19.4 µM | 3.21 µM |
| CC1(C)CC(c2cccc(N3CCN(c4ccccc4F)CC3)c2)Nc2c(C(=O)NS(C)(=O)=O)cc(F)cc21 (stereo not drawn) [Example 59, N-(6-fluoro-2-{3-[4-(2-fluoro-phenyl)-piperazin-1-yl]-phenyl}-4,4-dimethyl-1,2,3,4-tetrahydro-quinoline-8-carbonyl)-methanesulfonamide] | 7.73 µM | 0.74 µM |
| CC(C)(C)c1ccc(-c2cccc(C3CC(C)(C)c4cc(C(=O)NS(=O)(=O)C5CC5)ccc4N3)c2)cc1 (stereo not drawn) [Example 40, Cyclopropanesulfonic acid [2-(4′-tert-butyl-biphenyl-3-yl)-4,4-dimethyl-1,2,3,4-tetrahydro-quinoline-6-carbonyl]-amide] | 6.6 µM | 6.17 µM |
| CC1(C)CC(c2cccnc2)Nc2ccc(C(=O)NS(C)(=O)=O)cc21 (stereo not drawn) [Example 18, N-(4,4-dimethyl-2-pyridin-3-yl-1,2,3,4-tetrahydro-quinoline-6-carbonyl)-methanesulfonamide] | 7.98 µM | 20 µM |
| CC1(C)CC(c2cccc(-c3ccccc3O)c2)Nc2ccc(S(=O)(=O)NC3CCC3)cc21 (stereo not drawn) [Example 17, 2-(2′-Hydroxy-biphenyl-3-yl)-4,4-dimethyl-1,2,3,4-tetrahydro-quinoline-6-sulfonic acid cyclobutylamide] | 0.41 µM | 0.05 µM |
| Cc1ccccc1N1CCN(c2cccc(C3CC(C)(C)c4cc(F)cc(C(=O)NS(C)(=O)=O)c4N3)c2)CC1 (stereo not drawn) [Example 57, N-{6-fluoro-4,4-dimethyl-2-[3-(4-o-tolyl-piperazin-1-yl)-phenyl]-1,2,3,4-tetrahydro-quinoline-8-carbonyl}-methanesulfonamide] | 0.85 µM | 0.61 µM |
| CC1(C)CC(c2cccc(N3CCCC3)c2)Nc2c(C(=O)NS(=O)(=O)C3CC3)cc(Cl)cc21 (stereo not drawn) [Example 72, Cyclopropanesulfonic acid [6-chloro-4,4-dimethyl-2-(3-pyrrolidin-1-yl-phenyl)-1,2,3,4-tetrahydro-quinoline-8-carbonyl]-amide] | 0.14 µM | 3.49 µM |
| Cc1ccc(N2CCN(c3cccc(C4CC(C)(C)c5cc(C(=O)NS(C)(=O)=O)ccc5N4)c3)CC2)c(C)c1 (stereo not drawn) [Example 53, N-(2-{3-[4-(2,4-dimethyl-phenyl)-piperazin-1-yl]-phenyl}-4,4-dimethyl-1,2,3,4-tetrahydro-quinoline-6-carbonyl)-methanesulfonamide] | 4.79 µM | 11.7 µM |
| CC(C)(C)c1ccc(-c2cncc(C3CC(C)(C)c4cc(C(=O)NS(=O)(=O)C5CC5)ccc4N3)c2)cc1 (stereo not drawn) [Example 74, Cyclopropanesulfonic acid {2-[5-(4-tert-butyl-phenyl)-pyridin-3-yl]-4,4-dimethyl-1,2,3,4-tetrahydro-quinoline-6-carbonyl}-amide] | 0.06 µM | 1.67 µM |
| CC1(C)CC(c2cc(F)cc(N3CCOCC3)c2)Nc2ccc(C(=O)NS(C)(=O)=O)cc21 (stereo not drawn) [Example 4, N-[2-(3-fluoro-5-morpholin-4-yl-phenyl)-4,4-dimethyl-1,2,3,4-tetrahydro-quinoline-6-carbonyl]-methanesulfonamide] | 6.76 µM | 6.23 µM |
| Cc1ccc(N2CCOCC2)cc1C1CC(C)(C)c2cc(C(=O)NS(C)(=O)=O)ccc2N1 (stereo not drawn) [Example 22, N-[4,4-dimethyl-2-(2-methyl-5-morpholin-4-yl-phenyl)-1,2,3,4-tetrahydro-quinoline-6-carbonyl]-methanesulfonamide] | 0.02 µM | 0.16 µM |
| CC1(C)CC(c2cccc(N3CCOCC3)c2)Nc2ccc(S(=O)(=O)NC3CCC3)cc21 (stereo not drawn) [Example 15, 4,4-Dimethyl-2-(3-morpholin-4-yl-phenyl)-1,2,3,4-tetrahydro-quinoline-6-sulfonic acid cyclobutylamide] | 0.1 µM | 0.1 µM |
| CC1(C)CC(c2cccc(N3CCOCC3)c2)Nc2ccc(S(=O)(=O)N3CCOCC3)cc21 (stereo not drawn) [Example 12, 4,4-Dimethyl-6-(morpholine-4-sulfonyl)-2-(3-morpholin-4-yl-phenyl)-1,2,3,4-tetrahydro-quinoline] | 5.70 µM | 1.86 µM |
| Cc1ccc(N2CCN(c3cncc(C4CC(C)(C)c5cc(C(=O)NS(C)(=O)=O)ccc5N4)c3)CC2)c(C)c1 (stereo not drawn) [Example 49, N-(2-{5-[4-(2,4-dimethyl-phenyl)-piperazin-1-yl]-pyridin-3-yl}-4,4-dimethyl-1,2,3,4-tetrahydro-quinoline-6-carbonyl)-methanesulfonamide] | 0.15 µM | 6.93 µM |
| CC1(C)CC(c2cccc(N3CCCC3)c2)Nc2c(C(=O)NS(=O)(=O)C3CC3)cc(F)cc21 (stereo not drawn) [Example 70, Cyclopropanesulfonic acid [6-fluoro-4,4-dimethyl-2-(3-pyrrolidin-1-yl-phenyl)-1,2,3,4-tetrahydro-quinoline-8-carbonyl]-amide] |  | 0.57 µM |
| CC1(C)CC(c2cccc(N3CCOCC3)c2)Nc2c(C(=O)NS(=O)(=O)C3CC3)cc(Cl)cc21 (stereo not drawn) [Example 63, Cyclopropanesulfonic acid [6-chloro-4,4-dimethyl-2-(3-morpholin-4-yl-phenyl)-1,2,3,4-tetrahydro-quinoline-8-carbonyl]-amide] |  | 5.2 µM |
| CC1(C)CC(c2cccc(N3CCOCC3)c2)Nc2c(C(=O)NS(=O)(=O)C3CC3)cccc21 (stereo not drawn) [Example 11, Cyclopropanesulfonic acid [4,4-dimethyl-2-(3-morpholin-4-yl-phenyl)-1,2,3,4-tetrahydro-quinoline-8-carbonyl]-amide] |  | 0.3 µM |
| CC1(C)CC(c2cccc(N3CCCC3)c2)Nc2c(C(=O)NS(C)(=O)=O)cc(F)cc21 (stereo not drawn) [Example 69, N-[6-fluoro-4,4-dimethyl-2-(3-pyrrolidin-1-yl-phenyl)-1,2,3,4-tetrahydro-quinoline-8-carbonyl]-methanesulfonamide] |  | 0.1 µM |

From patent US8809369B2, “Tetrahydroquinoline derivatives” (Hoffmann-La Roche Inc., priority 2011, dated 2014)
